The text below walks through data of US20240277006A1, “ANTIBIOTIC-FREE ANTIMICROBIAL FEED ADDITIVES AND ANTIMICROBIAL COMPOSITIONS” (Sláinte Beoga Teoranta, priority 2018, published 2024).

This experiment concerns E. coli (1103 DSMZ). The experiment can be described thus: Checkerboard assay, composition with antibiotic. Type of experiment: cell-based. Conditions: composition comprising a source of iodide ions and a source of hydrogen peroxide plus antibiotic. As for the experimental part: Checkerboard assays were carried out to determine if there is a synergistic antagonistic effect with the addition of an antibiotic to a composition comprising a source of iodide ions and a source of hydrogen peroxide. • E. coli (1103 DSMZ) was used for tests • These tests were carried out in lysogeny broth (lb) • Antibiotics tested were ampicillin and gentamycin • Procedure: • 50 μl antibiotic • 100 μl composition • 150 μl 10^5 cells in LB Results
Cells shaded in dark grey represent sub-inhibitory concentrations where growth prevailed. Bacterial growth was prevented for the remaining cells. […] However, in the presence of both the composition and the antibiotic, the concentrations required to achieve a kill are lower—in other words, the combined MIC is lower. These can be seen by the entries marked with a star (*).

On to `CC[C@H]1OC(=O)[C@H](C)[C@@H](O[C@H]2C[C@@](C)(OC)[C@@H](O)[C@H](C)O2)[C@H](C)[C@@H](O[C@@H]2O[C@H](C)C[C@H](N(C)C)[C@H]2O)[C@](C)(O)C[C@@H](C)C(=O)[C@H](C)[C@@H](O)[C@]1(C)O` [erythromycin], for which the “Effect of the antibiotic in combination with the composition” value was “synergistic effect”.

For the compound `CC[C@H]1OC(=O)[C@H](C)[C@@H](O[C@H]2C[C@@](C)(OC)[C@@H](O)[C@H](C)O2)[C@H](C)[C@@H](O[C@@H]2O[C@H](C)C[C@H](N(C)C)[C@H]2O)[C@](C)(OC)C[C@@H](C)C(=O)[C@H](C)[C@@H](O)[C@]1(C)O` [clarithromycin], the “Effect of the antibiotic in combination with the composition” value is “synergistic effect”.
